Data on 31 compounds can be found in ChEMBL document CHEMBL1133592, “trans-1-[(2-Phenylcyclopropyl)methyl]-4-arylpiperazines: mixed dopamine D(2)/D(4) receptor antagonists as potential antipsychotic agents” (J Med Chem, 2000).

Test system in the first series: not listed separately
The experiment in a line: Half-life determined upon exposure to rat liver microsomes.
Conditions: not given
Format: ADME, Microsome. Background: Liver microsomes are a subcellular fraction often used to study metabolism.
In the case of `Br.Clc1ccc(N2CCN(C[C@H]3C[C@@H]3c3ccccc3)CC2)c(Cl)c1`, the half-life was determined as 2 min. On to `Br.Cc1ccc(N2CCN(C[C@@H]3C[C@H]3c3ccccc3)CC2)c(C)c1`, for which the half-life amounted to 3 min.

Test system in a further series: not listed separately
The experiment in a line: Half-life determined upon exposure to human liver microsomes. Format: ADME, Microsome.
Conditions: not given
In turn, `Br.Clc1ccc(N2CCN(C[C@H]3C[C@@H]3c3ccccc3)CC2)c(Cl)c1` came in with a half-life of 19 min. The same measure, in the same setting: the result for `Br.Cc1ccc(N2CCN(C[C@@H]3C[C@H]3c3ccccc3)CC2)c(C)c1` reads 16 min.

In a further series the target is T1, Adrenergic receptor alpha-1 (Rattus norvegicus, UniProt P15823+P23944+P43140).
T1 sequence (P15823 whole entry): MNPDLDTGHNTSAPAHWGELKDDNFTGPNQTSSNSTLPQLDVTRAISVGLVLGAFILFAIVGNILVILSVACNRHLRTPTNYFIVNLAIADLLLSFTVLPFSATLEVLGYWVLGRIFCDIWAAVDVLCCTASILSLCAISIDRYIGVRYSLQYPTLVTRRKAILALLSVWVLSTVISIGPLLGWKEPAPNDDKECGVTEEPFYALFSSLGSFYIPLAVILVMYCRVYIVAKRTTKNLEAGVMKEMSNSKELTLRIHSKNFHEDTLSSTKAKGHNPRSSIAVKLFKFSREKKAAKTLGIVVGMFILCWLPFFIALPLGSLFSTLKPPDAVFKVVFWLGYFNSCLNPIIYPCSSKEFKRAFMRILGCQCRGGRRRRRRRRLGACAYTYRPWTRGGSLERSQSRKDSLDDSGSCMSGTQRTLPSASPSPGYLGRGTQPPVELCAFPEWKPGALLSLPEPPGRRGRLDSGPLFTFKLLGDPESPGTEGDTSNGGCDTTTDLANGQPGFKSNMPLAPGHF
T1 sequence (P23944 whole entry): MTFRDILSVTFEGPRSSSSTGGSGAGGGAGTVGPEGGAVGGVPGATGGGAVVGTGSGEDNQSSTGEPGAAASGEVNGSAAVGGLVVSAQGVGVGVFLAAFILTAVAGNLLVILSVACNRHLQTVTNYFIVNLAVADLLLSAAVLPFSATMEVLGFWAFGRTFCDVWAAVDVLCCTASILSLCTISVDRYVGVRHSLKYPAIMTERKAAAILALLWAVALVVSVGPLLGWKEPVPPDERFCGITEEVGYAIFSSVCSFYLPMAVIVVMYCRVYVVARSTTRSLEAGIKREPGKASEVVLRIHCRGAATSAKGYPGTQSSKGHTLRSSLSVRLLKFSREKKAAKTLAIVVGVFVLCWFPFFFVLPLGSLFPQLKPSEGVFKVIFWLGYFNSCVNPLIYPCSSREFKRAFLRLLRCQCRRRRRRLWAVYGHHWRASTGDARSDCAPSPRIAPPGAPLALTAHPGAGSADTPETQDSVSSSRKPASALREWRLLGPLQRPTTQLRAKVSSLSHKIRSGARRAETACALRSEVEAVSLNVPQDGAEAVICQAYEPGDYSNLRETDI
T1 sequence (P43140 whole entry): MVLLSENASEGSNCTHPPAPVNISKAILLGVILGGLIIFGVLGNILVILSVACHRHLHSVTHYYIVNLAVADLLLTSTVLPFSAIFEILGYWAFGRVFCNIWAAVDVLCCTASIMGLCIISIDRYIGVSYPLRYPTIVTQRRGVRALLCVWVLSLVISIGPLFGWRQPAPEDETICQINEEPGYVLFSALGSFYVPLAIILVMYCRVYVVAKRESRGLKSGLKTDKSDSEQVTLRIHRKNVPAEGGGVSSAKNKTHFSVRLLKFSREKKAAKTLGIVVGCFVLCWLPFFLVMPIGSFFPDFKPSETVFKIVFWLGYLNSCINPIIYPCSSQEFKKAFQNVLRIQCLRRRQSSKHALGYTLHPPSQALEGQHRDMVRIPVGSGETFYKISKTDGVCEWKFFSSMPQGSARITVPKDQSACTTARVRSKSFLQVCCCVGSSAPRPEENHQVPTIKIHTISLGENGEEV
Experiment: not given
Conditions: not given
In turn, `Br.Clc1ccccc1N1CCN(C[C@H]2C[C@@H]2c2ccccc2)CC1` (racemic) yielded an IC50 of 10 nM.

Turning to `Br.COc1ccc(Cl)cc1N1CCN(C[C@H]2C[C@@H]2c2ccccc2)CC1` (racemic), the IC50 turned out to be 8 nM.

`Br.Cc1ccc(N2CCN(CC3CC3c3ccccc3)CC2)c(C)c1` (racemic) displayed an IC50 of 144 nM. On the same count and under the same terms, the result for `Br.Clc1cccc(N2CCN(C[C@H]3C[C@@H]3c3ccccc3)CC2)c1` (racemic) reads 70 nM. The same measure, in the same setting: the result for `Br.COc1ccc(N2CCN(C[C@H]3C[C@@H]3c3ccccc3)CC2)cc1` (racemic) reads 633 nM; that for `Br.Clc1ccc(N2CCN(C[C@H]3C[C@@H]3c3ccccc3)CC2)cc1` (racemic), 81 nM; that for `Br.Clc1ccc(N2CCN(C[C@H]3C[C@@H]3c3ccccc3)CC2)cc1Cl` (racemic), 45 nM. The same measure, in the same setting: in the case of `Br.Cc1cc(Cl)ccc1N1CCN(C[C@H]2C[C@@H]2c2ccccc2)CC1` it was 307 nM. `Clc1ccc(N2CCN(C[C@@H]3C[C@H]3c3ccccc3)CC2)c(Cl)c1` had an IC50 of 348 nM. `Br.Clc1ccc(N2CCN(C[C@H]3C[C@@H]3c3ccccc3)CC2)c(Cl)c1` (racemic) returned an IC50 of 311 nM. The same measure, in the same setting: in the case of `Br.Fc1ccc([C@H]2C[C@@H]2CN2CCN(c3ccc(Cl)cc3)CC2)cc1` (racemic) it was 61 nM; in that of `Br.Clc1cccc(N2CCN(C[C@H]3C[C@@H]3c3ccccc3)CC2)c1Cl` (racemic), 329 nM; in that of `Br.c1ccc([C@H]2C[C@@H]2CN2CCN(c3cccnc3)CC2)cc1` (racemic), > 1246 nM. As to `Br.COc1ccc([C@H]2C[C@@H]2CN2CCN(c3ccc(Cl)cc3Cl)CC2)cc1` (racemic), the concentration for half-maximal inhibition (IC50) was 61 nM. `Br.COc1cccc(N2CCN(C[C@H]3C[C@@H]3c3ccccc3)CC2)c1` (racemic) returned an IC50 of 324 nM. In turn, `Br.Fc1ccc([C@H]2C[C@@H]2CN2CCN(c3ccccc3Cl)CC2)cc1` (racemic) returned an IC50 of 9 nM. Same read-out and setting: in the case of `Br.c1ccc([C@H]2C[C@@H]2CN2CCN(c3ccncc3)CC2)cc1` (racemic) it was > 10000 nM; in that of `c1ccc([C@H]2C[C@@H]2CN2CCN(c3ccccc3)CC2)cc1` (racemic), 22 nM. In turn, `Br.COc1cc(Cl)ccc1N1CCN(C[C@H]2C[C@@H]2c2ccccc2)CC1` registered an IC50 of 29 nM. Still for that read-out and setting: the result for `Br.Cc1ccc(N2CCN(C[C@H]3C[C@@H]3c3ccccc3)CC2)c(C)c1` reads 137 nM; that for `Br.Clc1ccc(N2CCN(C[C@H]3C[C@@H]3c3ccccc3)CC2)c(Cl)c1`, 322 nM. `Cl.c1ccc([C@H]2C[C@@H]2CN2CCN(c3ccccn3)CC2)cc1` (racemic) gave an IC50 of 55 nM.

`Br.Cc1ccc(N2CCN(C[C@@H]3C[C@H]3c3ccccc3)CC2)c(C)c1` yielded an IC50 of 131 nM. With `Br.Clc1cc(Cl)cc(N2CCN(C[C@H]3C[C@@H]3c3ccccc3)CC2)c1` (racemic), the IC50 is recorded as 1341 nM. For the compound `Br.COc1c(Cl)cc(N2CCN(C[C@H]3C[C@@H]3c3ccccc3)CC2)cc1Cl` (racemic), the IC50 is listed as 193 nM. Same read-out and setting: in the case of `Br.Br.COc1cc(F)ccc1N1CCN(C[C@H]2C[C@@H]2c2ccccc2)CC1` it was 14 nM. On to `Cl.c1ccc([C@H]2C[C@@H]2CN2CCN(c3ncccn3)CC2)cc1` (racemic), for which the IC50 is recorded as 168 nM. Compound `Br.Cc1cc(F)ccc1N1CCN(C[C@H]2C[C@@H]2c2ccccc2)CC1` returned an IC50 of 31 nM. Consider `Br.Oc1ccc([C@H]2C[C@@H]2CN2CCN(c3ccc(Cl)cc3Cl)CC2)cc1` (racemic), for which the IC50 was found to be 74 nM.

The species named for the next series is Rattus norvegicus. The experiment in a line: animal or person. The settings on record: read-out: MED.
Description: Minimum effective dose observed in rat catalepsy experiments
In the case of `O=C(CCCN1CCC(O)(c2ccc(Cl)cc2)CC1)c1ccc(F)cc1` [HALOPERIDOL], the minimal effective dose is 0.5 mg/kg.

The species entered for another series is Rattus norvegicus. Description: animal or person. The settings on record: read-out: MED. This is another data set of the same source.
Description: Minimum effective dose that produced a significant effect relative to the amphetamine alone control using a Fisher's LSD post hoc test (P<0.05)
Regarding `O=C(CCCN1CCC(O)(c2ccc(Cl)cc2)CC1)c1ccc(F)cc1` [HALOPERIDOL], the minimal effective dose came to 0.06 mg/kg. As for `CN1CCN(C2=Nc3cc(Cl)ccc3Nc3ccccc32)CC1` [CLOZAPINE], the minimal effective dose came to 0.5 mg/kg.

As usually defined, the half-life is the time needed for the level to fall by half in the phase considered. Higher therefore signals slow loss. The term IC50 denotes the concentration needed to halve the response being measured. A low value points to greater potency in that assay.
